From patent US12275731B2, “Azaindole inhibitors of wild-type and mutant forms of LRRK2” (DANA-FARBER CANCER INSTITUTE, INC., priority 2018, dated 2025)

Key:
Test in all cases: KinomeScan profiling
Type in all cases: binding
AMPK-alpha1 = target: T1, AMPK-alpha1 (Homo sapiens, UniProt Q13131); settings: AMPK-alpha1, 1 μM; read-out: % control
T1 construct: purchased KinomeScan®
Summary of the method: (§1)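 Percent-of-control values derive from RLU, calculated as (test − positive)/(negative − positive) × 100, where DMSO defines 100% and a positive control compound defines 0%. Each compound was tested at 1 μM in the 468-kinase panel; sub-35% readings indicate activity.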

BUB1 = BUB1 (Homo sapiens, UniProt O43683); settings: BUB1, 1 μM; read-out: % control
Summary of the method: as §1

CAMK1D = CAMK1D (Homo sapiens, UniProt Q8IU85); settings: read-out: % control
Summary of the method: as §1

CDK3 = CDK3 (Homo sapiens, UniProt Q00526); settings: CDK3, 1 μM; read-out: % control
Summary of the method: as §1

DCAMKL2 = target: T2, DCAMKL2 (Homo sapiens, UniProt Q8N568); settings: DCAMKL2, 1 μM; read-out: % control
T2 sequence (Q8N568 1-766): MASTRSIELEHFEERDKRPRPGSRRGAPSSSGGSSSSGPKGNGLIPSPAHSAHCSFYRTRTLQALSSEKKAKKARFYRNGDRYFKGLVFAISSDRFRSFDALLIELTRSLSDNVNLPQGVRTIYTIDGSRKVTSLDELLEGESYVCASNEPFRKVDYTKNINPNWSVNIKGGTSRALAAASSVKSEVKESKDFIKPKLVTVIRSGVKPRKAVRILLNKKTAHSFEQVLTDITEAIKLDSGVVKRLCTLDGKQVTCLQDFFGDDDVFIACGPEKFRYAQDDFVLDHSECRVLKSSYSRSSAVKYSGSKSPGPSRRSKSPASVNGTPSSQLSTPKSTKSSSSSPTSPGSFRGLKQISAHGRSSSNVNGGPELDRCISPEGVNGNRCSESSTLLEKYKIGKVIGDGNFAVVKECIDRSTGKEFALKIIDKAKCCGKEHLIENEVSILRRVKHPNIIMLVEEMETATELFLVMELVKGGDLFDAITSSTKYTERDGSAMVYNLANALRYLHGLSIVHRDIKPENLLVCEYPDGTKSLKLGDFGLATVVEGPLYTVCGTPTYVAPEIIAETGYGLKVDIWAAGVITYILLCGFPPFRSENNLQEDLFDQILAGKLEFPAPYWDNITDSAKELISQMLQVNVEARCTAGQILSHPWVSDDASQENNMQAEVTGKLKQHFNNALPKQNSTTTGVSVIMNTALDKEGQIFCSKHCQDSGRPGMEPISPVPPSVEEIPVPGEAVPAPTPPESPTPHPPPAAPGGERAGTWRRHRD
Summary of the method: as §1

KIT(V559D) = target: T3, KIT(V559D) (Homo sapiens, UniProt P10721, V559D); settings: read-out: % control
T3 construct: purchased KinomeScan®
Summary of the method: as §1

LOK = LOK (Homo sapiens, UniProt O94804); settings: read-out: % control
Summary of the method: as §1

PKMYT1 = target: T4, PKMYT1 (Homo sapiens, UniProt Q99640); settings: PKMYT1, 1 μM; read-out: % control
T4 sequence (Q99640 1-499): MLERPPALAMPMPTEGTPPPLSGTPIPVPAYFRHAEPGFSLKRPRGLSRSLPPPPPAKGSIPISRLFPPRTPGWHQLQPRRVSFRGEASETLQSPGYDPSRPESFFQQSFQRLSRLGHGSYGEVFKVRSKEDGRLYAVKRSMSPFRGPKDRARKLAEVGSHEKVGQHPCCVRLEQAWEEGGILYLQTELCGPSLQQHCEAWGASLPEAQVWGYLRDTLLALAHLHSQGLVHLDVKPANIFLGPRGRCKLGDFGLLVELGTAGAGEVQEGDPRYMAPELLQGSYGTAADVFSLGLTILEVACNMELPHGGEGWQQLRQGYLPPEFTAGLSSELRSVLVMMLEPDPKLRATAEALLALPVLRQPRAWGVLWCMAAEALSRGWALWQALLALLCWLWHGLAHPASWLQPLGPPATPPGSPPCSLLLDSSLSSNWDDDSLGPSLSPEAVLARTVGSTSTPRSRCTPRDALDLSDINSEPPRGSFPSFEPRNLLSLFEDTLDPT
Summary of the method: as §1

SYK = target: T5, SYK (Homo sapiens, UniProt P43405); settings: read-out: % control
T5 construct: purchased KinomeScan® (panel service)
Summary of the method: as §1

TSSK3 = target: T6, TSSK3 (Homo sapiens, UniProt Q96PN8); settings: TSSK3, 1 μM; read-out: % control
T6 sequence (Q96PN8 1-268): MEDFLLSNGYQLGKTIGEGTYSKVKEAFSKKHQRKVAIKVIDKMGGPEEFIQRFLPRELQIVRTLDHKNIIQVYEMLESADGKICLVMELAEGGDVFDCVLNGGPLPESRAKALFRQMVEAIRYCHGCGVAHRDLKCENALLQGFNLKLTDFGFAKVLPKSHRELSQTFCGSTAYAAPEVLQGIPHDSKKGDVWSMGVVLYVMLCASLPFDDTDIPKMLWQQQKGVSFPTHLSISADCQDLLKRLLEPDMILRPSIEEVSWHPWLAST
Summary of the method: as §1

[1] = target: T7, TYK2(JH2domain-pseudokinase) (Homo sapiens, UniProt P29597); settings: read-out: % control
T7 construct: TYK2(JH2domain-pseudokinase)
Summary of the method: as §1

p38-delta = target: T8, p38-delta (Homo sapiens, UniProt O15264); settings: read-out: % control
T8 sequence (O15264 1-365): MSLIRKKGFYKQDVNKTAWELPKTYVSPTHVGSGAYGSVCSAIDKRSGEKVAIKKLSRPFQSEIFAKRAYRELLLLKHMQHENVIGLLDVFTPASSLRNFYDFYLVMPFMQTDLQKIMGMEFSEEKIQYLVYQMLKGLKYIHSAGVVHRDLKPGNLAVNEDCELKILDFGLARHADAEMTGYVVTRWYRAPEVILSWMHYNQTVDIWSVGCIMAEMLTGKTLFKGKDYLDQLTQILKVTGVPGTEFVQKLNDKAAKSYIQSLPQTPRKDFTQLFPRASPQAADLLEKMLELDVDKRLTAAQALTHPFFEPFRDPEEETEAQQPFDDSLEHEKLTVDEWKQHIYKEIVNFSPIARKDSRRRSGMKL
Summary of the method: as §1

Chain of BUB1 (O43683 whole entry): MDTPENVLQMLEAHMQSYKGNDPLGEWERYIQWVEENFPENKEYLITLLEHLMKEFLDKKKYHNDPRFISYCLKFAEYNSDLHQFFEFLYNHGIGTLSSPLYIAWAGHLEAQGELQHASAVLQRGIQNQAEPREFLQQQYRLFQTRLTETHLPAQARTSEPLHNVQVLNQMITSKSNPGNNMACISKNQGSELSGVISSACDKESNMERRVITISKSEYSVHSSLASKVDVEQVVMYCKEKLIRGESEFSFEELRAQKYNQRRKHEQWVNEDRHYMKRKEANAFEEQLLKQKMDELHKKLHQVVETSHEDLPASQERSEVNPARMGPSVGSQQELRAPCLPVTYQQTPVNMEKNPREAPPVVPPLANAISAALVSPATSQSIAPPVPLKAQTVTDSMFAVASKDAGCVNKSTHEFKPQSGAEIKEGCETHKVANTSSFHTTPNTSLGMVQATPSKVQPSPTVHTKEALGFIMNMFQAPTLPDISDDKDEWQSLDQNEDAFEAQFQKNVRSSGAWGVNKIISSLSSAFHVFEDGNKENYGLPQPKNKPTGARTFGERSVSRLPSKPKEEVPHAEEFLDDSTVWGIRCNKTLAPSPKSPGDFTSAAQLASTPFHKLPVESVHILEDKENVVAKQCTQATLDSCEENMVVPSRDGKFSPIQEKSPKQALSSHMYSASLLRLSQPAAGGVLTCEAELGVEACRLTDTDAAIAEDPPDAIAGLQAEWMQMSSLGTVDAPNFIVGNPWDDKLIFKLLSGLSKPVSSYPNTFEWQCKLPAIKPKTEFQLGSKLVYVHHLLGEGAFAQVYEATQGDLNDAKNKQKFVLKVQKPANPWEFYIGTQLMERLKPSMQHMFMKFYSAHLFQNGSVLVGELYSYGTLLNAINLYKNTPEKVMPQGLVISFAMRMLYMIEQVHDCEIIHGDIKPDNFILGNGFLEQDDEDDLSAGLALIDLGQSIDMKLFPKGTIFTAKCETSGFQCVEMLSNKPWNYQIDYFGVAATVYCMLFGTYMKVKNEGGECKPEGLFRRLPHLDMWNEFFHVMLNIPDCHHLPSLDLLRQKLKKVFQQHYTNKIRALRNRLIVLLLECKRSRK
T7 sequence (P29597 589-875 limits assumed): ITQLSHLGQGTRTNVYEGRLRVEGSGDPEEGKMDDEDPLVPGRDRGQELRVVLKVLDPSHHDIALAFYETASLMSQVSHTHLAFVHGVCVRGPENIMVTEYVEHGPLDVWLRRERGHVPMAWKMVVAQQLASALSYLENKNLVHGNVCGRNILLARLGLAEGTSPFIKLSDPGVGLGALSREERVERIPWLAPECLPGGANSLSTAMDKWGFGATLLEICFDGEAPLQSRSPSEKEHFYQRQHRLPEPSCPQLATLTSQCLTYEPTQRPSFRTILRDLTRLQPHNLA
Chain of CDK3 (Q00526 whole entry): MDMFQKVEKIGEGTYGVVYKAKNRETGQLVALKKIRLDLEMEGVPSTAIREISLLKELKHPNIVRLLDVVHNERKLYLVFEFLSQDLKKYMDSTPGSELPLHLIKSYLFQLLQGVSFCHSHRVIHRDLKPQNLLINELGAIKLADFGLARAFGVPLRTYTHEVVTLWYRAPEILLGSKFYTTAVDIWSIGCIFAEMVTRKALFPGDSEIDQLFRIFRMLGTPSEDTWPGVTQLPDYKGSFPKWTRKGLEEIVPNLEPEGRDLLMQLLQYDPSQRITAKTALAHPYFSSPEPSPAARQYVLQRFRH
Chain of CAMK1D (Q8IU85 whole entry): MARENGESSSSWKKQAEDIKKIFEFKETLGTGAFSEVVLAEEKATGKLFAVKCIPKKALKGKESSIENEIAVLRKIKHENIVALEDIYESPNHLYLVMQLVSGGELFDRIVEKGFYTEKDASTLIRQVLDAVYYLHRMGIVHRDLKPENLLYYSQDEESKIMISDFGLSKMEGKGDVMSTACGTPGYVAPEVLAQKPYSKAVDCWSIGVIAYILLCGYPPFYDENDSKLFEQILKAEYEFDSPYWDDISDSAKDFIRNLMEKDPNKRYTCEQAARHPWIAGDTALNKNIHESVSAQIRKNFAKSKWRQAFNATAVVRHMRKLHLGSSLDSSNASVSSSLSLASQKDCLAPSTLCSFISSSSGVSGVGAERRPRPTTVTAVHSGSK
Chain of LOK (O94804 whole entry): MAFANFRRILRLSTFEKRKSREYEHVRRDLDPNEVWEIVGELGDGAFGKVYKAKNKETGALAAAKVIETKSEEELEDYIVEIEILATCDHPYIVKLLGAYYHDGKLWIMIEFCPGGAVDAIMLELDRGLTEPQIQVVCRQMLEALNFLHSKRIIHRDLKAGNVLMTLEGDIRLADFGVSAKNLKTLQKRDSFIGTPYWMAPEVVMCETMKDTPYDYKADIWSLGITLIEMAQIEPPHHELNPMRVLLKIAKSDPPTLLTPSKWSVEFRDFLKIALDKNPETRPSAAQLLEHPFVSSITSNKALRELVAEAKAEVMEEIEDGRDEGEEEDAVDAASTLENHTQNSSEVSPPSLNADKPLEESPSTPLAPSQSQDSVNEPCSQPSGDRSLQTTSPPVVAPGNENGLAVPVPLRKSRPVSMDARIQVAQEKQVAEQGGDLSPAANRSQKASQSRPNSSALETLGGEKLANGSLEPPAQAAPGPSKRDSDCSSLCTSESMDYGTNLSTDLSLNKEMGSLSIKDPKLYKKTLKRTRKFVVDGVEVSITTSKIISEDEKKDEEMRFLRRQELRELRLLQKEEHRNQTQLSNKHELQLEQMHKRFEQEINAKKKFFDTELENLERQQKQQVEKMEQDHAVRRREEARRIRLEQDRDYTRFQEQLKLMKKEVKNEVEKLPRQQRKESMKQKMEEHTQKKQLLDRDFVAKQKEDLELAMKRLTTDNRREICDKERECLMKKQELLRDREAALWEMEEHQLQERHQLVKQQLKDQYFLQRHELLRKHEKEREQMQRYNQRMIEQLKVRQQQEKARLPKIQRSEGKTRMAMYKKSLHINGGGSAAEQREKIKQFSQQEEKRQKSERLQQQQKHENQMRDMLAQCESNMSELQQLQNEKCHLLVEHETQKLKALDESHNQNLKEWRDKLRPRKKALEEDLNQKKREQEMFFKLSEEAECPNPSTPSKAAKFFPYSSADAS
T3 sequence (P10721 26-976 V559D): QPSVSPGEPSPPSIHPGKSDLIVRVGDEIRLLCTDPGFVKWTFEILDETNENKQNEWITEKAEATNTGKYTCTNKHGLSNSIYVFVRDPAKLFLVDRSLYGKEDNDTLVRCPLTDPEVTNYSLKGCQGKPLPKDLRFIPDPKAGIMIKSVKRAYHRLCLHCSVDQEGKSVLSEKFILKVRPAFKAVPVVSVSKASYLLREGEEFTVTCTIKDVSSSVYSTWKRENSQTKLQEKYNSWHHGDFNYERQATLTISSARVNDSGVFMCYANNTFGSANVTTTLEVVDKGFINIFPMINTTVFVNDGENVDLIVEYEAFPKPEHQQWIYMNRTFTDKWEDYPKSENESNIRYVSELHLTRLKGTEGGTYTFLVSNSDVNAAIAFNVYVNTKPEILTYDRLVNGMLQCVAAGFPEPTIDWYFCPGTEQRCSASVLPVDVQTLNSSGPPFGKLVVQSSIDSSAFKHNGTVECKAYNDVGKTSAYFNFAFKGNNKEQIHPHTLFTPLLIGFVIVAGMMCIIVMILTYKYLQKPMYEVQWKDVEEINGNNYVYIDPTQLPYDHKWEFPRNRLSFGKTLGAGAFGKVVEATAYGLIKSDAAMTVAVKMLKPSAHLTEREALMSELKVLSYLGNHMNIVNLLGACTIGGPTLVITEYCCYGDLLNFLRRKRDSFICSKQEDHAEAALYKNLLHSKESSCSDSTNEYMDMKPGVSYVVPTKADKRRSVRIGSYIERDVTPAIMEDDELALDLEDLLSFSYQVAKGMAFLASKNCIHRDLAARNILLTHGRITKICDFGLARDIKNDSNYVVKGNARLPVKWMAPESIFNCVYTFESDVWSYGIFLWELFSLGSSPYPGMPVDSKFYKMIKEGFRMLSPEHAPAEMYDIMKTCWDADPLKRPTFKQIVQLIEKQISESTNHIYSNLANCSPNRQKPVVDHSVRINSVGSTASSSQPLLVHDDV
T1 sequence (Q13131 whole entry): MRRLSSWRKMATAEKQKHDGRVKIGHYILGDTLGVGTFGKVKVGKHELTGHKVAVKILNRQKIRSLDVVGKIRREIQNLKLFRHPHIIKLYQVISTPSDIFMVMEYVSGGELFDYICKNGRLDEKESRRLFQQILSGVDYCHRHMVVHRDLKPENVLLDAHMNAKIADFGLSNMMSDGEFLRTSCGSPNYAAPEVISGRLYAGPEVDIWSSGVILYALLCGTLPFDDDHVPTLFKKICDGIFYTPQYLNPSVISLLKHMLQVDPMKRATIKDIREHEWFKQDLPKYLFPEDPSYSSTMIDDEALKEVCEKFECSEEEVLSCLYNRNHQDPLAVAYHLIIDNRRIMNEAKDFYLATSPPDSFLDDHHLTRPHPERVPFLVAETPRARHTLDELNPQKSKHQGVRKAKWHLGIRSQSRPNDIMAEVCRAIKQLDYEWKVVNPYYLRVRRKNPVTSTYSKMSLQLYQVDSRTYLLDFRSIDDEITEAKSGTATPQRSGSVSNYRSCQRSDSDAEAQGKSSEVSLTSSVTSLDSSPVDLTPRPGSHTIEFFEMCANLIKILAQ

Row | SMILES | remaining binding at 1 µM (AMPK-alpha1) [%] | remaining binding at 1 µM (BUB1) [%] | remaining binding at 1 µM (CAMK1D) [%] | remaining binding at 1 µM (CDK3) [%] | remaining binding at 1 µM (DCAMKL2) [%] | remaining binding at 1 µM (KIT(V559D)) [%] | remaining binding at 1 µM (LOK) [%] | remaining binding at 1 µM (PKMYT1) [%] | remaining binding at 1 µM (SYK) [%] | remaining binding at 1 µM (TSSK3) [%] | remaining binding at 1 µM [1] [%] | remaining binding at 1 µM (p38-delta) [%]
1 | CNc1c(-c2cnn([C@H]3CCN(C(C)=O)C[C@@H]3F)c2)cnc2[nH]cc(Cl)c12 [Compound 77, 1-((3S,4S)-4-(4-(3-chloro-4-(methylamino)-1H-pyrrolo[2,3-b]pyridin-5-yl)-1H-pyrazol-1-yl)-3-fluoropiperidin-1-yl)ethan-1-one] | 100 | 80 | 85 | 95 | 89 | 2.8 | 99 | 98 | 100 | 65 | 84 | 96
2 | CNc1c(-c2ccc(C(=O)N3CCC(N4CCOCC4)CC3)cc2)cnc2[nH]cc(Cl)c12 [Compound 96, (4-(3-chloro-4-(methylamino)-1H-pyrrolo[2,3-b]pyridin-5-yl)phenyl)(4-morpholinopiperidin-1-yl)methanone] | 75 | 86 | 69 | 89 | 78 | 4.5 | 88 | 100 | 100 | 45 | 89 | 99
3 | O=C(c1ccc(-c2cnc3[nH]cc(Cl)c3c2NC2CCCC2)cc1)N1CCC(N2CCOCC2)CC1 [Compound 101, (4-(3-chloro-4-(cyclopentylamino)-1H-pyrrolo[2,3-b]pyridin-5-yl)phenyl)(4-morpholinopiperidin-1-yl)methanone] | 78 | 100 | 100 | 97 | 99 | 50 | 81 | 97 | 100 | 98 | 100 | 94
